Target: T1, BamA (Escherichia coli, UniProt P0A940)
T1 construct: biotinylated for BLI
Assay: biolayer interferometry ([…] global fit); supported by GST pull-down showing dose-dependent loss of BamA–BamD interaction
Format: binding

Question: COC(=O)c1c(NC(=O)c2ccc([N+](=O)[O-])o2)sc2c1CCN(C(C)C)C2 [IMB-H4] was tested. Which Kd did it give?
Answer: Its Kd is 3.90E^–6.

Reference: paper PMC7316895, “Identification of a Compound That Inhibits the Growth of Gram-Negative Bacteria by Blocking BamA–BamD Interaction” (Frontiers in Microbiology, 2020)
